The text below walks through data of ChEMBL document CHEMBL6182898, “Design, synthesis and bioevaluation of novel hydrazide derivatives as enhancers of immunotherapy and DNA-damage response in antitumor therapy” (Eur J Med Chem, 2025).

Activity calls are given as the source filed them. No cut-off for these calls is given here.

One series relates to SK-OV-3. The experiment in a line: Antiproliferative activity against human SK-OV-3 cells incubated for 72 hrs by MTT assay. The class given is functional, cell-based. The note with it: SK-OV-3, 72 h.
The next series addresses T1, Histone deacetylase 8 (Homo sapiens, UniProt Q9BY41).
T1 sequence (Q9BY41 whole entry): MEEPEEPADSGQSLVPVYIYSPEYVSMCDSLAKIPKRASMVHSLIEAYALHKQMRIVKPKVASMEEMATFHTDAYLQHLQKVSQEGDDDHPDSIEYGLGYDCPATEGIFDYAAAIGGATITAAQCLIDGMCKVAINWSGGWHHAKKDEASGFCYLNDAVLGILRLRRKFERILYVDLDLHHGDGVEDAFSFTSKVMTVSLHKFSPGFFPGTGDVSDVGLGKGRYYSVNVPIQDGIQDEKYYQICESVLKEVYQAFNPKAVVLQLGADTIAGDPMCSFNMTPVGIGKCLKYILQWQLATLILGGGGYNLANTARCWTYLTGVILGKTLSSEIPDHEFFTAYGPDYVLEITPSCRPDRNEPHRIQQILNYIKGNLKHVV
The experiment in a line: Inhibition of HDAC8 (unknown origin).

The subject of series [1] is B16-F10. The experiment in a line: Antitumor activity against mouse B16-F10 cells implanted in male C57BL/6J mouse at 50 mg/kg, IG treated for 14 days consecutively relative to control. In kind it is functional. Particulars: B16-F10, po, 336 h, time 14 day, read-out: TGI.
Series [2] deals with 4T1. The experiment in a line: Synergistic induction of DNA damage in mouse 4T1 cells implanted in mouse assessed as decrease in PARP level at 25 mg/kg/day in presence of olaparib by immunofluorescence based analysis. In kind it is functional, organism-based.
Series [3] deals with T2, Histone deacetylase 3 (Mus musculus) (UniProt O88895).
T2 sequence (whole entry): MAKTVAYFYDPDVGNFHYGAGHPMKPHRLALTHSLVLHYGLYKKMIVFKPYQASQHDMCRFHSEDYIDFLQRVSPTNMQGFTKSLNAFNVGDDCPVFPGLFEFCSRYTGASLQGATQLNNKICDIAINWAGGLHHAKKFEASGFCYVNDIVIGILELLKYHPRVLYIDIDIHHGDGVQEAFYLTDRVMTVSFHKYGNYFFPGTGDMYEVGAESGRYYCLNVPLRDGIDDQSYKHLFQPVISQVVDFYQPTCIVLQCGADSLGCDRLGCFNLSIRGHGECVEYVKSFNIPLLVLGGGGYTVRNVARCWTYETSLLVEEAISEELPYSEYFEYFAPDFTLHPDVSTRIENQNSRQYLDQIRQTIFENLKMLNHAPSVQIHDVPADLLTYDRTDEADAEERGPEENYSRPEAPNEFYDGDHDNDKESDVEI
The experiment in a line: In vivo inhibition of HDAC3 in mouse B16-F10 cells implanted in male C57BL/6J mouse assessed as decrease in PD-L1 level at 50 mg/kg, IG treated for 14 days consecutively by Western blot analysis. The note with it: time 14.0 day. The class given is functional, organism-based. For orientation: Immunoblotting shows a protein as a band on a membrane.

The subject of the next series is HCT-116. The experiment in a line: cells. The class given is functional. The note with it: Homo sapiens, time 72 hrs.
In series [4] the test system is B16-F10. The experiment in a line: Antiproliferative activity against mouse B16-F10 cells incubated for 72 hrs by MTT assay. The class given is functional, cell-based. Particulars: B16-F10, 72 h. (Formazan colour is commonly taken as a measure of viable cells.)
Series [5] relates to B16-F10. The experiment in a line: Induction of cell cycle arrest in mouse B16-F10 cells assessed as cell accumulation incubated for 24 hrs by PI staining based flow cytometry. In kind it is functional. The note with it: dose 2.5-10 µM.
Series [6] deals with B16-F10. The experiment in a line: Induction of antitumor immunity in mouse B16-F10 cells assessed as decrease in NCOR2 level at 2.5 to 10 uM incubated for 24 hrs by Western blot analysis. The note with it: dose 2.5-10 µM. In kind it is functional, cell-based.
In series [7] the test system is 4T1. The experiment in a line: Synergistic induction of DNA damage in mouse 4T1 cells assessed as increase in gamma-H2AX level at 1 uM incubated for 24 hrs in presence of Olaparib by Western blot analysis. In kind it is functional, cell-based.
Series [8] relates to B16-F10. The experiment in a line: Induction of apoptosis in mouse B16-F10 cells assessed as late-stage apoptosis at 5 uM incubated for 48 hrs by Annexin V-FITC/PI staining based flow cytometry relative to control. The class given is functional. On the technique in general: In flow cytometry, cells or beads pass a laser one at a time.
Series [9] deals with 4T1. The experiment in a line: Induction of DNA damage in mouse 4T1 cells assessed as increase in gamma-H2AX level at 5 uM by immunofluorescence based analysis. The class given is functional, cell-based.
Series [10] can be described thus: MRT (0 to t) in male Sprague-Dawley rat at 2 mg/kg, iv measured for 0.083 to 12 hrs by LC-MS/MS analysis. The class given is ADME, organism-based. The note with it: in vivo, time 0.083-12 hrs.
For series [11], the system named is B16-F10. The experiment in a line: Induction of antitumor immunity in mouse B16-F10 cells implanted in male C57BL/6J mouse assessed as CD3+CD8+ T cell infiltration at 25 mg/kg, IG treated for 14 days consecutively in presence of NP-19 by flow cytometry (reference value: 10 %). In kind it is functional. The note with it: time 14 day.
Series [12] has as its system 4T1. The experiment in a line: Synergistic induction of DNA damage in mouse 4T1 cells assessed as decrease in PARP1 level at 1 uM incubated for 24 hrs in presence of Olaparib by Western blot analysis. The class given is functional, cell-based.
The target in the next series is Histone deacetylase 3 (Homo sapiens, UniProt O15379). The experiment in a line: Inhibition of HDAC3 (unknown origin).
A short description of series [13]: Toxicity in male C57BL/6J mouse implanted with mouse B16-F10 cells assessed as histopathological damage in kidney at 50 mg/kg, IG treated for 14 days consecutively by H and E staining based analysis. In kind it is organism-based. Particulars: in vivo, po, 336 h, time 14 day.
The target in series [14] is T2, Histone deacetylase 3 (Mus musculus). The experiment in a line: Inhibition of HDAC3 in mouse B16-F10 cells assessed as increase in Ac-H3K56 level at 2.5 to 10 uM incubated for 24 hrs by Western blot analysis. The class given is cell-based. Particulars: dose 2.5-10 µM.
The nature of series [15]: MRT (0 to t) in male Sprague-Dawley rat at 20 mg/kg, po measured for 0.083 to 12 hrs by LC-MS/MS analysis. In kind it is ADME, organism-based. The note with it: in vivo, time 0.083-12 hrs.
For series [16], the system named is 4T1. The experiment in a line: Synergistic induction of DNA damage in mouse 4T1 cells implanted in mouse assessed as increase in gamma-H2AX level at 25 mg/kg/day in presence of olaparib by Western blot analysis. In kind it is functional, organism-based.
The target in series [17] is T2, Histone deacetylase 3 (Mus musculus). The experiment in a line: In vivo inhibition of HDAC3 in mouse B16-F10 cells implanted in male C57BL/6J mouse assessed as increase in Ac-H3 level at 50 mg/kg, IG treated for 14 days consecutively by Western blot analysis. In kind it is functional, organism-based. The note with it: time 14.0 day.
Series [18] in a line: Toxicity in male C57BL/6J mouse implanted with mouse B16-F10 cells assessed as histopathological damage in heart at 50 mg/kg, IG treated for 14 days consecutively by H and E staining based analysis. The class given is organism-based. The note with it: in vivo, po, 336 h, time 14 day.
Series [19] is described as follows: Clast in male Sprague-Dawley rat at 2 mg/kg, iv measured for 0.083 to 12 hrs by LC-MS/MS analysis. Particulars: in vivo, time 0.083-12 hrs. The class given is ADME, organism-based.
The nature of series [20]: Toxicity in male C57BL/6J mouse implanted with mouse B16-F10 cells assessed as body weight change at 50 mg/kg, IG treated for 14 days consecutively. In kind it is organism-based. The note with it: in vivo, po, 336 h, time 14 day.
The subject of series [21] is 4T1. The experiment in a line: Induction of DNA damage in mouse 4T1 cells assessed as decrease in PARP1 level at 5 uM by immunofluorescence based analysis. In kind it is functional, cell-based.
A short description of series [22]: AUC (0 to infinity) in male Sprague-Dawley rat at 2 mg/kg, iv measured for 0.083 to 12 hrs by LC-MS/MS analysis. In kind it is ADME, organism-based. Particulars: in vivo, time 0.083-12 hrs.
Series [23] relates to 4T1. The experiment in a line: Induction of DNA damage in mouse 4T1 cells implanted in mouse assessed as decrease in PARP level at 50 mg/kg/day by Western blot analysis. The class given is functional, organism-based.

Histone deacetylase 3, sequence (O15379 whole entry): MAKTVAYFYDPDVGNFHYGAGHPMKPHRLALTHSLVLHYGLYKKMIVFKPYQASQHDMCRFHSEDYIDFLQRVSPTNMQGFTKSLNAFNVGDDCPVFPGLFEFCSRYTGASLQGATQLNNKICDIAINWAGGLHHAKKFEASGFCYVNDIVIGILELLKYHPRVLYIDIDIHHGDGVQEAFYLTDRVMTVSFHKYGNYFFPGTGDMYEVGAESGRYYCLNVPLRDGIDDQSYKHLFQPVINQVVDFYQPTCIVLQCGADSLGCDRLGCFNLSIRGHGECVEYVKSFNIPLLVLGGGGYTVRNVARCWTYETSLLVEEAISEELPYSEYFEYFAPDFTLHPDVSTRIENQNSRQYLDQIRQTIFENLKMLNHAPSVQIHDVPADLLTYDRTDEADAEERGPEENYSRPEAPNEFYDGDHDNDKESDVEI

Consider `CCCNNC(=O)CCCCCCNC(=O)c1cnc(-c2ccc(NC(=O)OC(C)(C)C)cc2)s1`, for which the IC50 – broadly, the concentration that gives 50% inhibition – in the series with SK-OV-3 was 5.76 µM; on Histone deacetylase 8, over 10 µM; in the series with B16-F10 [4], 5.22 µM; at Histone deacetylase 3, 0.31 µM. In addition, in the series with B16-F10 [1], the inhibition in vivo at 50 mg/kg was 59%. Further, the outcome with 4T1 [2], in the series on B16-F10 [6], in the series with 4T1 [7], with 4T1 [9], with 4T1 [12] and in the series with 4T1 [16] was Active. The outcome with 4T1 [21] and with 4T1 [23] was Active. The inhibition entry in [3], in [14] and in [17] was “Active” throughout. For the same molecule, the inhibition (usually the change of the read-out against control, counted positive when it falls) at 10 µM with HCT-116 came to 93.6%. In addition, the Activity result in the series on B16-F10 [5] is “Dose-dependent-effect”; in the series on B16-F10 [8] it was 43.5%; in the series with B16-F10 [11], 38%; in series [13] it was “Non-toxic”; in series [18], “Non-toxic”; in series [20], “Non-toxic”. Further, the MRT last (in general, a mean duration of stay, worked out from the concentration-time curve) in series [10] was 0.34 h; in series [15] it was 2.57 h. Further, the Clast in [19] is 0.24 ng/mL. The AUC(0-inf) (commonly total exposure, with the tail of the curve extrapolated) in series [22] is 658 ng·h/mL.

Turning to `CCCNNC(=O)c1ccc(NC(=O)c2cnc(-c3ccc(OC(F)(F)F)cc3)s2)cc1`, the IC50 was 8.37 µM in the series on SK-OV-3, over 10 µM at Histone deacetylase 8, 6.07 µM in the series with B16-F10 [4] and 0.4 µM against Histone deacetylase 3. In the series on HCT-116, the inhibition at 10 µM was under 50%. Besides, the Activity result was “Dose-dependent-effect” in the series on B16-F10 [5] and 45.8% in the series with B16-F10 [8]. In addition, the outcome in the series with B16-F10 [6] was Active. Also, in series [14], the inhibition entry is “Active”.
